≈ marks a conversion by molar mass, not a printed value.
Legend:
Assay in all cases: MIC, microdilution broth method (NCCLS)
Format in all cases: cell-based
Conditions in all cases: 35° C., 16-20 hours
[1] = tested on: H. influenzae ATCC49247
Procedure, shortened: (§1)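 Actively growing broth cultures are turbidity-adjusted to give about 5×10^4 CFU/well, then added to two-fold compound dilutions in cation-adjusted Mueller-Hinton broth. After 16-20 hours at 35° C, growth is compared with untreated controls.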

[2] = tested on: E. faecalis ATCC29212
Procedure, shortened: as §1

[3] = tested on: S. pneumoniae ATCC49619
Procedure, shortened: as §1

[4] = tested on: S. aureus ATCC29213
Procedure, shortened: as §1

Row | SMILES | MIC (E: H. influenzae ATCC49247) [1] | MIC (C: E. faecalis ATCC29212) [2] | MIC (D: S. pneumoniae ATCC49619) [3] | MIC (B: S. aureus ATCC29213) [4]
1 | CC[C@H]1OC(=O)[C@H](C)C(=O)[C@H](C)[C@@H](O[C@@H]2O[C@H](C)C[C@H](N(C)C)[C@H]2O)[C@](C)(OC(=O)SCc2ccc(-c3ncccn3)cc2)C[C@@H](C)C(=O)[C@H](C)[C@H]2NC(=O)O[C@@]21C [Compound 834] | 8 µg/mL (≈ 9.67 µM) | 0.12 µg/mL (≈ 0.145 µM) | <0.015 µg/mL | 0.5 µg/mL (≈ 0.605 µM)
2 | CC[C@H]1OC(=O)[C@H](C)C(=O)[C@H](C)[C@@H](O[C@@H]2O[C@H](C)C[C@H](N(C)C)[C@H]2O)[C@](C)(OC(=O)SCCc2ccc(-c3ncccn3)cc2)C[C@@H](C)C(=O)[C@H](C)[C@H]2NC(=O)O[C@@]21C [Compound 835] | 4 µg/mL (≈ 4.76 µM) | 0.12 µg/mL (≈ 0.143 µM) | 0.03 µg/mL (≈ 0.0357 µM) | 0.5 µg/mL (≈ 0.595 µM)
3 | CC[C@H]1OC(=O)[C@H](C)C(=O)[C@H](C)[C@@H](O[C@@H]2O[C@H](C)C[C@H](N(C)C)[C@H]2O)[C@](C)(OC(=O)SCCc2ccc(-n3cncn3)cc2)C[C@@H](C)C(=O)[C@H](C)[C@H]2NC(=O)O[C@@]21C [Compound 836] | 1 µg/mL (≈ 1.2 µM) | 0.12 µg/mL (≈ 0.145 µM) | 0.03 µg/mL (≈ 0.0361 µM) | 0.25 µg/mL (≈ 0.301 µM)
4 | CC[C@H]1OC(=O)[C@H](C)C(=O)[C@H](C)[C@@H](O[C@@H]2O[C@H](C)C[C@H](N(C)C)[C@H]2O)[C@](C)(OC(=O)SC/C=C/c2cnc3ccccc3c2)C[C@@H](C)C(=O)[C@H](C)[C@H]2NC(=O)O[C@@]21C [Compound 837] | 8 µg/mL (≈ 9.68 µM) | 0.25 µg/mL (≈ 0.303 µM) | 0.12 µg/mL (≈ 0.145 µM) | 2 µg/mL (≈ 2.42 µM)
5 | CC[C@H]1OC(=O)[C@H](C)C(=O)[C@H](C)[C@@H](O[C@@H]2O[C@H](C)C[C@H](N(C)C)[C@H]2O)[C@](C)(OC(=O)SCc2cnc3ccccc3c2)C[C@@H](C)C(=O)[C@H](C)[C@H]2NC(=O)O[C@@]21C [Compound 838] | 1 µg/mL (≈ 1.25 µM) | 0.12 µg/mL (≈ 0.15 µM) | 0.06 µg/mL (≈ 0.075 µM) | 0.25 µg/mL (≈ 0.313 µM)
6 | CC[C@H]1OC(=O)[C@H](C)C(=O)[C@H](C)[C@@H](O[C@@H]2O[C@H](C)C[C@H](N(C)C)[C@H]2O)[C@](C)(OC(=O)SCc2ccc(-c3ccccn3)s2)C[C@@H](C)C(=O)[C@H](C)[C@H]2NC(=O)O[C@@]21C [Compound 839] | 2 µg/mL (≈ 2.4 µM) | 0.12 µg/mL (≈ 0.144 µM) | 0.06 µg/mL (≈ 0.0721 µM) | 1 µg/mL (≈ 1.2 µM)
7 | CC[C@H]1OC(=O)[C@H](C)C(=O)[C@H](C)[C@@H](O[C@@H]2O[C@H](C)C[C@H](N(C)C)[C@H]2O)[C@](C)(OC(=O)SCc2ccc(-n3cncn3)cc2)C[C@@H](C)C(=O)[C@H](C)[C@H]2NC(=O)O[C@@]21C [Compound 840] | 2 µg/mL (≈ 2.45 µM) | 0.12 µg/mL (≈ 0.147 µM) | 0.06 µg/mL (≈ 0.0735 µM) | 0.5 µg/mL (≈ 0.613 µM)
8 | CC[C@H]1OC(=O)[C@H](C)C(=O)[C@H](C)[C@@H](O[C@@H]2O[C@H](C)C[C@H](N(C)C)[C@H]2O)[C@](C)(OC(=O)SCc2cn(-c3ncccn3)cn2)C[C@@H](C)C(=O)[C@H](C)[C@H]2NC(=O)O[C@@]21C [Compound 841] | 2 µg/mL (≈ 2.45 µM) | 0.12 µg/mL (≈ 0.147 µM) | 0.03 µg/mL (≈ 0.0367 µM) | 0.5 µg/mL (≈ 0.612 µM)
9 | CC[C@H]1OC(=O)[C@H](C)C(=O)[C@H](C)[C@@H](O[C@@H]2O[C@H](C)C[C@H](N(C)C)[C@H]2O)[C@](C)(OC(=O)Cc2ccccc2)C[C@@H](C)C(=O)[C@H](C)[C@H]2NC(=O)O[C@@]21C [Compound 843] | 16 µg/mL (≈ 22.3 µM) | 2 µg/mL (≈ 2.79 µM) | 0.5 µg/mL (≈ 0.697 µM) | 8 µg/mL (≈ 11.2 µM)
10 | CC[C@H]1OC(=O)[C@H](C)C(=O)[C@H](C)[C@@H](O[C@@H]2O[C@H](C)C[C@H](N(C)C)[C@H]2O)[C@](C)(OC(=O)CCCc2ccccc2)C[C@@H](C)C(=O)[C@H](C)[C@H]2NC(=O)O[C@@]21C [Compound 844] | 4 µg/mL (≈ 5.37 µM) | 0.12 µg/mL (≈ 0.161 µM) | 0.03 µg/mL (≈ 0.0403 µM) | 0.5 µg/mL (≈ 0.671 µM)
11 | CC[C@H]1OC(=O)[C@H](C)C(=O)[C@H](C)[C@@H](O[C@@H]2O[C@H](C)C[C@H](N(C)C)[C@H]2O)[C@](C)(OC(=O)n2ccc(C(=N)Cc3ccccc3)c2)C[C@@H](C)C(=O)[C@H](C)[C@H]2NC(=O)O[C@@]21C [Compound 845] | >16 µg/mL | >16 µg/mL | 4 µg/mL (≈ 4.94 µM) | >16 µg/mL
12 | CCC1OC(=O)C(C)C(=O)C(C)C(OC2OC(C)CC(N(C)C)C2O)C(C)(OC(=O)n2ccc(C(=N)CCCc3ccccc3)c2)CC(C)C(=O)C(C)C2NC(=O)OC12C (stereo not drawn) [Compound 846] | 2 µg/mL (≈ 2.39 µM) | 1 µg/mL (≈ 1.19 µM) | 0.25 µg/mL (≈ 0.299 µM) | 8 µg/mL (≈ 9.56 µM)

Reference: patent US6825170B2, “6-O-acyl ketolide antibacterials” (Ortho-McNeil Pharmaceutical, Inc., priority 2001, dated 2004)
